Assay results published in ChEMBL document CHEMBL5291721, “A preclinical secondary pharmacology resource illuminates target-adverse drug reaction associations of marketed drugs” (Nat Commun, 2023).

Legend:
Adenosine receptor A3 = molecular target: T1, Adenosine receptor A3 (Homo sapiens, UniProt P0DMS8)
T1 sequence (P0DMS8 whole entry): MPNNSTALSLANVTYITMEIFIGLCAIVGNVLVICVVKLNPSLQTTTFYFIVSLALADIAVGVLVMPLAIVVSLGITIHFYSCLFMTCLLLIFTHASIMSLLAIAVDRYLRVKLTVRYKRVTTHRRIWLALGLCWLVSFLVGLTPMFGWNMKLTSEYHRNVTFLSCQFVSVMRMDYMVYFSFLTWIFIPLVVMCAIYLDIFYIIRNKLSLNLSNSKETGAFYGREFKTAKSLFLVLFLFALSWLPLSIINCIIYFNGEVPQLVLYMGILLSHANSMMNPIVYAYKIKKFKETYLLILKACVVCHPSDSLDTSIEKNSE

[1] = molecular target: Sodium-dependent noradrenaline transporter (Homo sapiens, UniProt P23975)
Sodium-dependent noradrenaline transporter, sequence (P23975 whole entry): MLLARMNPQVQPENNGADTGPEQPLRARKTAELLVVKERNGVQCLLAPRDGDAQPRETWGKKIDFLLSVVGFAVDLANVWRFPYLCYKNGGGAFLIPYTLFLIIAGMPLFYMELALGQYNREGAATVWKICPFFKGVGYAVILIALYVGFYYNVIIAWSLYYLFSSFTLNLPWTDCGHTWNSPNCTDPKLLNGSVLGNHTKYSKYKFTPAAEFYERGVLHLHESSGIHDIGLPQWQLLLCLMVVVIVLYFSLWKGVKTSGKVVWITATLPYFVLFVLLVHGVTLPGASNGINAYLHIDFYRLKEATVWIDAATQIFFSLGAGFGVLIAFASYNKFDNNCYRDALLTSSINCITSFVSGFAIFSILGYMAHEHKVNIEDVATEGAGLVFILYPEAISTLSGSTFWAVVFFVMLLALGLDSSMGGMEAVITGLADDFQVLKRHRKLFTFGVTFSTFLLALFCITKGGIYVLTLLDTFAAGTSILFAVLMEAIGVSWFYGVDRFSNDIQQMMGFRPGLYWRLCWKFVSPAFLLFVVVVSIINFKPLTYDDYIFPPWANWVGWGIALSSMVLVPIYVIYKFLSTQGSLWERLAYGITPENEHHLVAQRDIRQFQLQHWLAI

[2] = molecular target: 3',5'-cyclic-AMP phosphodiesterase 4D (Homo sapiens, UniProt Q08499); format: functional
3',5'-cyclic-AMP phosphodiesterase 4D, sequence (Q08499 whole entry): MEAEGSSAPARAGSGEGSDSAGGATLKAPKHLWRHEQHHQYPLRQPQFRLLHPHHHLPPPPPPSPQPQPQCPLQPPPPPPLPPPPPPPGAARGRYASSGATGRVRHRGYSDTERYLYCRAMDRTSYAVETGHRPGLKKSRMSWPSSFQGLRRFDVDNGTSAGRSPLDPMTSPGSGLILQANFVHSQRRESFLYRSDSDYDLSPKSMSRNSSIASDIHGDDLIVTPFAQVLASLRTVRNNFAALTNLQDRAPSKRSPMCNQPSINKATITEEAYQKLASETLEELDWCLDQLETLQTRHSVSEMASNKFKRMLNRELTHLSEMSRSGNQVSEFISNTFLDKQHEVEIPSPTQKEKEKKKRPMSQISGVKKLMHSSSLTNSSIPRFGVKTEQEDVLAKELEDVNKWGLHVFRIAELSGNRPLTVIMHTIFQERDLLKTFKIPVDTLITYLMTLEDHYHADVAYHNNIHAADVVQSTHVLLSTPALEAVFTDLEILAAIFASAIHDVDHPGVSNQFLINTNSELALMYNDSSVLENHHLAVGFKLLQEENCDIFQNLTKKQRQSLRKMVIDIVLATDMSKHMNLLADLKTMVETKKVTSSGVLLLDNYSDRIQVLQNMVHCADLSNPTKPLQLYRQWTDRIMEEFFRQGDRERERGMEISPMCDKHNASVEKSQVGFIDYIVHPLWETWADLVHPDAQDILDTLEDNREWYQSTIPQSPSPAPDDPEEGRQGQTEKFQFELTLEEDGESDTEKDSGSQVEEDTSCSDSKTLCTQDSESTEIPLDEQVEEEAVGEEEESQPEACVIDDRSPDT

[3] = molecular target: T2, Alpha-2C adrenergic receptor (Homo sapiens, UniProt P18825); format: functional
T2 sequence (P18825 whole entry): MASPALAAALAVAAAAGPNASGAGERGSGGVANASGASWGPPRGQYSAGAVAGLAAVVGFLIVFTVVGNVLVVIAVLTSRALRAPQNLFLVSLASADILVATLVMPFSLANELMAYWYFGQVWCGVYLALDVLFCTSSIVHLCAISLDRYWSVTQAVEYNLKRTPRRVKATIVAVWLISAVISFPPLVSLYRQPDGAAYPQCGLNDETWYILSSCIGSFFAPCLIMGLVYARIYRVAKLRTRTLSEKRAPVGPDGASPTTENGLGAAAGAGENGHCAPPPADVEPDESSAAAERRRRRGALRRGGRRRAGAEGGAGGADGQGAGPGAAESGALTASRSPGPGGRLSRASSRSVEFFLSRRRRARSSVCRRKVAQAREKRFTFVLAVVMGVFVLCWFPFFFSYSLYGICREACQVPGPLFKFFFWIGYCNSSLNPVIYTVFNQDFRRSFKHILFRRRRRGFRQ

[4] = molecular target: T3, 5-hydroxytryptamine receptor 3A (Homo sapiens, UniProt P46098); format: functional
T3 sequence (P46098 whole entry): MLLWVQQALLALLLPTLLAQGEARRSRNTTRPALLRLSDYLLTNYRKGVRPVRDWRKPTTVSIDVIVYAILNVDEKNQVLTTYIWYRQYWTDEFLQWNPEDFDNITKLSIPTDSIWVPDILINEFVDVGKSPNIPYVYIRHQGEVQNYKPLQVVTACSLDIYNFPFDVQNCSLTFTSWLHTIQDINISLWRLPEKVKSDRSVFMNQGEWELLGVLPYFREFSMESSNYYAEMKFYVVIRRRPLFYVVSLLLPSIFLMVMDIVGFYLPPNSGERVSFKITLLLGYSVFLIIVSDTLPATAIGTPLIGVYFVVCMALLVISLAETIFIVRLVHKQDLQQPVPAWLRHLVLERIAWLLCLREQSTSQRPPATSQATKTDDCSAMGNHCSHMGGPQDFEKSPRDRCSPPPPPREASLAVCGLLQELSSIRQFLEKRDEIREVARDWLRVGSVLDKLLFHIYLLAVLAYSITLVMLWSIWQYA

Adenosine receptor A2a = Adenosine receptor A2a (Homo sapiens, UniProt P29274)
Adenosine receptor A2a, sequence (P29274 whole entry): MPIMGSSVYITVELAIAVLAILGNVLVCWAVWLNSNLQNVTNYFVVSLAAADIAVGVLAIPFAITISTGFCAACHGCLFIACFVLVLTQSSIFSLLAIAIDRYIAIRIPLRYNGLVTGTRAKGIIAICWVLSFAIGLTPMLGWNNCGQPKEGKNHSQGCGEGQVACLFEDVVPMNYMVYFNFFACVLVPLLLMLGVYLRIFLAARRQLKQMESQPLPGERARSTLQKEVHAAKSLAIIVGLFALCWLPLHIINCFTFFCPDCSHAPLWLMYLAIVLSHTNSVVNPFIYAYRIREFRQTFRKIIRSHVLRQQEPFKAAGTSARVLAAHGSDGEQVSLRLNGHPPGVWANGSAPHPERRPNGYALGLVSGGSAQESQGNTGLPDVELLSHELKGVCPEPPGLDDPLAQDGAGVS

Motilin receptor = Motilin receptor (Homo sapiens, UniProt O43193)
Motilin receptor, sequence (O43193 whole entry): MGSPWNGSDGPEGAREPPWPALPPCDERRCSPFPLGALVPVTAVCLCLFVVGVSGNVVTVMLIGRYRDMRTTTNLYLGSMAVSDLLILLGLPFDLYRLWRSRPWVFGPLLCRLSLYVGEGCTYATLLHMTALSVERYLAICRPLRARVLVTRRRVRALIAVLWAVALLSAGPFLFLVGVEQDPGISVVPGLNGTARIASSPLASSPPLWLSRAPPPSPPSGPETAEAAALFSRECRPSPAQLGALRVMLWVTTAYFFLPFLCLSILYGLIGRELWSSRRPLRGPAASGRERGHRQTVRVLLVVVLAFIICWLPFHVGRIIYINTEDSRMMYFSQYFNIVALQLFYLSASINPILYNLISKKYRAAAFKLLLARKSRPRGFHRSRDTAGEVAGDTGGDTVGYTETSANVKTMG

[5] = molecular target: Neuronal acetylcholine receptor subunit alpha-4 (Homo sapiens, UniProt P43681)
Neuronal acetylcholine receptor subunit alpha-4, sequence (P43681 whole entry): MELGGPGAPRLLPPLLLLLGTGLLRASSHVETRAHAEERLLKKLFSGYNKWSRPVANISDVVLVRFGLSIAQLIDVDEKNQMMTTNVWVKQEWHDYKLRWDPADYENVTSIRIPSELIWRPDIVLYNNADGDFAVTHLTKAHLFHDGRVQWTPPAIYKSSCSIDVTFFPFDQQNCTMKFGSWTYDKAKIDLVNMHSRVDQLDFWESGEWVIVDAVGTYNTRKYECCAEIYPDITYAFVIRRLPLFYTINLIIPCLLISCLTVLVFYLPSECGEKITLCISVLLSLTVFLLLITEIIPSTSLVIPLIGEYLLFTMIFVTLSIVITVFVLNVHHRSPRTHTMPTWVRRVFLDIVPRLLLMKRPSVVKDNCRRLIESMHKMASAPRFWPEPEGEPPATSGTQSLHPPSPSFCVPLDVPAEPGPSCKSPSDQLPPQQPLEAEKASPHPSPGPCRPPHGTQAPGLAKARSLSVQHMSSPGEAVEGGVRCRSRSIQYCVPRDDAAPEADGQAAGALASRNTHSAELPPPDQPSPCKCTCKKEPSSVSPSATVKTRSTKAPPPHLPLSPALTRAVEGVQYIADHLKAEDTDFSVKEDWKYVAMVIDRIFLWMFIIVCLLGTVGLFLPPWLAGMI

[6] = molecular target: T4, Neuropeptide Y receptor type 1 (Homo sapiens, UniProt P25929); conditions: read-out: AC50
T4 sequence (P25929 whole entry): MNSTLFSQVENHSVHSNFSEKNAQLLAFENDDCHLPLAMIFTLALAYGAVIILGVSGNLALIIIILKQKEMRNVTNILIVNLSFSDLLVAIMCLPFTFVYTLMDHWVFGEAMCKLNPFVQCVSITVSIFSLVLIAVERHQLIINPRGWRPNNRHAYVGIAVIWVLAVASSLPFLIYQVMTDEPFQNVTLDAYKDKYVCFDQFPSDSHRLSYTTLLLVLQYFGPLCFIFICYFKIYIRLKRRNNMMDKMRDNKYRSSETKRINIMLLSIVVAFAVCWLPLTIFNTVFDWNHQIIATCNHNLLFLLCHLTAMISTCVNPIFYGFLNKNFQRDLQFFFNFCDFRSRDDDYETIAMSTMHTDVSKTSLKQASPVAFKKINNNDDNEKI

Histamine H2 receptor = Histamine H2 receptor (Homo sapiens, UniProt P25021); format: functional, cell-based
Histamine H2 receptor, sequence (P25021 whole entry): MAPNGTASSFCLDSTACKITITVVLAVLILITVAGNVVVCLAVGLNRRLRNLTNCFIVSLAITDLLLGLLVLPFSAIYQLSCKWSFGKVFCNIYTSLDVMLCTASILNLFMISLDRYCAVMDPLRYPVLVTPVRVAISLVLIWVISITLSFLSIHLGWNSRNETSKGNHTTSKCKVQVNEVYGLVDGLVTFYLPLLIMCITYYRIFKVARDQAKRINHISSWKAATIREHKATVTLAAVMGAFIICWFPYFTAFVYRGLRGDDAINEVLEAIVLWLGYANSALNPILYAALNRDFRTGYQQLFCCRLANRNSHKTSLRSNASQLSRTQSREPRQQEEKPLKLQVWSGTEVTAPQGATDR

[7] = molecular target: Growth hormone secretagogue receptor type 1 (Homo sapiens, UniProt Q92847)
Growth hormone secretagogue receptor type 1, sequence (Q92847 whole entry): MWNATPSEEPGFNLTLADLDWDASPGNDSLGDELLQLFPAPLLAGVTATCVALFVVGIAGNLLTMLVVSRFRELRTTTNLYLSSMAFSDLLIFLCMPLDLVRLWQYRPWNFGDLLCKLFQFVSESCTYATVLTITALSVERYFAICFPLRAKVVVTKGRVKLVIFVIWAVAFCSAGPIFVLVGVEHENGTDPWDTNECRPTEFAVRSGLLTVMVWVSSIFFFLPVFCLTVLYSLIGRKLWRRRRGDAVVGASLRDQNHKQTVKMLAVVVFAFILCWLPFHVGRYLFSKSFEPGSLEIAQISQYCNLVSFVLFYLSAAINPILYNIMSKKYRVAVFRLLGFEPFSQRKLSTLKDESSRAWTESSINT

[8] = molecular target: T5, Type-1 angiotensin II receptor (Homo sapiens, UniProt P30556)
T5 sequence (P30556 whole entry): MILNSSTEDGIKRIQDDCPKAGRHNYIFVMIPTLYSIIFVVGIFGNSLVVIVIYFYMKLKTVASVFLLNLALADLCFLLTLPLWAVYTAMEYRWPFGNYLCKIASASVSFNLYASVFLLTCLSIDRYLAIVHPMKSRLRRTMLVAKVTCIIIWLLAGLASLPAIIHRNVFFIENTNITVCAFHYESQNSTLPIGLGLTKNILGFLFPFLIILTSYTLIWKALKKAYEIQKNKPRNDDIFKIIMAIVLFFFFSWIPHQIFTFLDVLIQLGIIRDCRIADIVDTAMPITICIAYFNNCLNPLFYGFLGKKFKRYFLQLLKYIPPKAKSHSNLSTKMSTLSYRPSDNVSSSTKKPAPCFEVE

Thromboxane A2 receptor = molecular target: T6, Thromboxane A2 receptor (Homo sapiens, UniProt P21731)
T6 sequence (P21731 whole entry): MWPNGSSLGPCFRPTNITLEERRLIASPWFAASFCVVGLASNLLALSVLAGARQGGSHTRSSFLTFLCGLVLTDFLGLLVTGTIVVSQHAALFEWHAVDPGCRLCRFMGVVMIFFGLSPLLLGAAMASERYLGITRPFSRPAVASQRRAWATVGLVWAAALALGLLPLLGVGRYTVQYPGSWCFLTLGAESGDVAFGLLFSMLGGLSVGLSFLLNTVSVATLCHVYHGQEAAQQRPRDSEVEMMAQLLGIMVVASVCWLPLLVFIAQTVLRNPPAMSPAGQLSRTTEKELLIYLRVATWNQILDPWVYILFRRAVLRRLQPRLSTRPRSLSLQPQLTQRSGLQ
Note: assay procedure not described here.

SMILES	AC50 (Adenosine receptor A3) [µM]	AC50 [1] [µM]	AC50 [2] [µM]	AC50 [3] [µM]	AC50 [4] [µM]	AC50 (Adenosine receptor A2a) [µM]	AC50 (Motilin receptor) [µM]	AC50 [5] [µM]	AC50 [6] [µM]	AC50 (Histamine H2 receptor) [µM]	AC50 [7] [µM]	AC50 [8] [µM]	AC50 (Thromboxane A2 receptor) [µM]
CC[C@@H]([C@H](C)O)n1ncn(-c2ccc(N3CCN(c4ccc(OC[C@@H]5CO[C@@](Cn6cncn6)(c6ccc(F)cc6F)C5)cc4)CC3)cc2)c1=O [POSACONAZOLE]	> 30	> 30	> 30	> 30	–	–	–	–	–	–	–	–	–
C/N=C(\NC)NCc1ccccc1 [BETHANIDINE]	> 30	> 30	> 30	> 30	> 30	> 30	> 30	> 30	> 30	> 30	> 30	> 30	–
CCC[C@H](NC(=O)[C@@H]1[C@H]2CCC[C@H]2CN1C(=O)[C@@H](NC(=O)[C@@H](NC(=O)c1cnccn1)C1CCCCC1)C(C)(C)C)C(=O)C(=O)NC1CC1	> 30	> 10	> 30	> 10	> 30	> 30	> 10	> 10	> 30	–	> 30	> 30	> 30
CCOC(=O)c1cncn1[C@H](C)c1ccccc1 [ETOMIDATE]	> 10	> 10	> 30	> 10	–	> 10	> 10	> 10	> 10	> 10	> 10	> 10	> 10
Oc1ccc2c(c1)CC[C@H](c1ccccc1)[C@@H]2c1ccc(OCCN2CCCC2)cc1 [LASOFOXIFENE]	5.8	2	15	–	> 30	> 30	2.9	> 30	25	> 30	5.2	> 30	–
CCC(C)C1(CC)C(=O)NC(=O)NC1=O (configuration not stated) [BUTABARBITAL]	> 30	> 30	> 30	> 30	–	> 30	> 30	> 30	–	> 30	> 30	> 30	–
CN1CCN(C2=Nc3ccccc3Oc3ccc(Cl)cc32)CC1 [LOXAPINE]	> 30	1.53	–	–	0.38	> 30	> 10	> 10	> 30	> 10	> 30	> 30	> 30
O=C(O)c1cn(C2CC2)c2cc(N3CCNCC3)c(F)cc2c1=O [CIPROFLOXACIN]	> 30	–	> 30	–	–	> 30	> 10	–	> 30	–	> 30	> 30	> 30
CCCc1nc(C(C)(C)O)c(C(=O)O)n1Cc1ccc(-c2ccccc2-c2nnn[nH]2)cc1 [OLMESARTAN]	–	–	–	–	–	–	–	–	–	–	–	0.0004	–
C[C@]12CC[C@@H]3c4ccc(O)cc4C[C@@H](CCCCCCCCC[S+]([O-])CCCC(F)(F)C(F)(F)F)[C@H]3[C@@H]1CC[C@@H]2O (some centres not stated) [FULVESTRANT]	> 30	> 30	> 30	> 30	> 30	> 30	> 30	> 30	> 30	> 30	> 30	> 30	–
Cc1cccc(N2CC(CO)OC2=O)c1 (configuration not stated) [TOLOXATONE]	> 30	–	> 30	> 30	> 30	> 30	> 30	> 30	> 30	> 30	> 30	> 30	> 30
O=[N+]([O-])c1ccc(O)c2ncccc12 [NITROXOLINE]	–	–	3.2	7.1	6.6	–	–	–	–	> 30	–	–	–
CNCc1ccc(-c2[nH]c3cc(F)cc4c3c2CCNC4=O)cc1 [RUCAPARIB]	–	20.7	10	> 10	–	> 30	> 30	> 30	> 30	–	> 30	> 30	> 30
CN(C)CCCNc1c2ccccc2nc2cccc([N+](=O)[O-])c12 [NITRACRINE]	> 30	> 30	21	5.2	> 30	17	> 30	> 30	> 30	–	> 30	> 30	> 30
Cc1cnc(C(=O)NCCc2ccc(S(=O)(=O)NC(=O)NC3CCCCC3)cc2)cn1 [GLIPIZIDE]	> 30	–	> 30	> 10	> 10	> 30	> 10	> 10	> 30	> 10	> 30	> 30	> 30
CC(C)NCC(O)c1ccc(O)c(O)c1 (configuration not stated) [ISOPROTERENOL]	20.3	> 30	> 30	–	> 10	> 30	> 10	> 30	> 30	> 10	> 30	> 30	> 30
CN1CCC(=C2c3ccccc3CCc3cccnc32)CC1 [AZATADINE]	> 30	> 30	> 30	–	> 30	> 30	> 10	> 10	> 30	> 10	> 30	> 30	> 30
